The test system of assay [1] is S. aureus (ATCC 29,213). Description: Antibacterial assay, broth microdilution MIC. The format is cell-based. As to conditions: for MIC: Staphylococcus aureus. How it is done: (§1) Antimicrobial testing was performed by the broth microdilution method in 96-well plates following the Clinical and Laboratory Standards Institute guidelines and European Committee on Antimicrobial Susceptibility Testing recommendations (Clinical and Laboratory Standards Institute). Bacterial suspensions equivalent to 0.5 McFarland turbidity standard were diluted with cation-adjusted Mueller–Hinton broth with TES buffering (ThermoFisher Scientific), for a final inoculum of 10^5 CFU/ mL. Compounds dissolved in DMSO and the inoculum were mixed and incubated for 20 h at 35 °C. […] The MICs were determined against two reference bacterial strains, S. aureus (ATCC 29,213) and E. coli (ATCC 25,922). Tetracycline was used as the positive control on every assay plate, with MICs of 0.5 and 1 µg/mL for S. aureus and E. coli, respectively. All MICs were determined in three independent experiments.
In general terms: Dilution methods test growth across graded concentrations, often in twofold steps.

Assay [2] deals with E. coli (ATCC 25,922). Description: Antibacterial assay, broth microdilution MIC. Format: cell-based. As to conditions: for MIC: Escherichia coli. How it is done: as §1
The target in assay [3] is E. coli MurC (Escherichia coli, UniProt P17952). Briefly: MurC inhibition assay (Malachite green). Format: biochemical. As to conditions: 0.25 h, read-out: RA (%) @ 100 µM MurC. Here is the method: (§2) Inhibition of the Mur ligases was determined using the Malachite green assay, with slight modifications. […] In all cases, the final concentration of DMSO was 5% (v/v).
(§3) After incubation for 15 min at 37 °C, the enzyme reaction was terminated by the addition of 100 µM Biomol green reagent®, and the absorbance was measured at 650 nm after 5 min. Experiments to determine the RA run in triplicate. Residual activities were calculated with respect to control assays without the tested compounds, but with the 5% DMSO carrier. The IC50 values were determined by measuring the residual activities at seven different compound concentrations, and they represent the concentration of the compound at which the residual activity was 50%. IC50 values were obtained by plotting the residual enzyme activities against the applied inhibitor concentrations, fitting the experimental data to the 4-parameter Hill equation: Y=Bottom-Top-Bottom/1+10^logIC50-X×HillSlope , where X is the logarithm of the inhibitor concentration, and Y is the residual activity. The IC50 values were determined in three independent experiments. GraphPad Prism 8.2.0 (GraphPad Software, San Diego, CA, USA) was used for the fitting procedure.
(§4) The assay detects the phosphate formed in each enzyme reaction. To avoid any possibility of the compounds inhibiting the enzymes due to aggregation, a detergent (0.005% Triton-X114) was added to the test system.

Assay [4] deals with E. coli MurD (Escherichia coli, UniProt P14900). Briefly: MurD inhibition assay (Malachite green). Format: biochemical. As to conditions: 0.25 h, read-out: RA (%) @ 100 µM MurD. Here is the method: as §2, §3, §4
The target in assay [5] is E. coli MurF (Escherichia coli, UniProt P11880). Description: MurF inhibition assay (Malachite green). Format: biochemical. As to conditions: for remaining activity at 100 µM: 0.25 h, residual activity at 100 µM compound, mean ± SD of three independent experiments, read-out: RA (%) @ 100 µM MurF; for IC50: seven compound concentrations, 4-parameter Hill fit, three independent experiments. Here is the method:
as §2, §3, §4

For assay [6], the target named is E. coli MurE (Escherichia coli, UniProt P22188). Description: MurE inhibition assay (Malachite green). Format: biochemical. As to conditions: 0.25 h, read-out: RA (%) @ 100 µM MurE. Here is the method:
as §2, §3, §4

Setting [7] is: ATCC29, broth microdilution, 20 h at 35 °C, read-out: MIC S.aureus.
The mark [8] stands for this setting: ATCC25, broth microdilution, 20 h at 35 °C, read-out: MIC E.coli.
Where [9] appears, read: residual activity at 100 µM compound, mean ± SD of three independent experiments.
Where [10] appears, read: ATCC29, 20 h, read-out: MIC S.aureus.
Setting [11] is: ATCC25, 20 h, read-out: MIC E.coli.

Read-outs that look alike come from different tables or passages of the source.

For orientation: MIC means the smallest concentration in the dilution series that meets the test's criterion for growth inhibition. In general, IC50 refers to the concentration that inhibits the measured activity by half.

Sequence of E. coli MurC (P17952 whole entry): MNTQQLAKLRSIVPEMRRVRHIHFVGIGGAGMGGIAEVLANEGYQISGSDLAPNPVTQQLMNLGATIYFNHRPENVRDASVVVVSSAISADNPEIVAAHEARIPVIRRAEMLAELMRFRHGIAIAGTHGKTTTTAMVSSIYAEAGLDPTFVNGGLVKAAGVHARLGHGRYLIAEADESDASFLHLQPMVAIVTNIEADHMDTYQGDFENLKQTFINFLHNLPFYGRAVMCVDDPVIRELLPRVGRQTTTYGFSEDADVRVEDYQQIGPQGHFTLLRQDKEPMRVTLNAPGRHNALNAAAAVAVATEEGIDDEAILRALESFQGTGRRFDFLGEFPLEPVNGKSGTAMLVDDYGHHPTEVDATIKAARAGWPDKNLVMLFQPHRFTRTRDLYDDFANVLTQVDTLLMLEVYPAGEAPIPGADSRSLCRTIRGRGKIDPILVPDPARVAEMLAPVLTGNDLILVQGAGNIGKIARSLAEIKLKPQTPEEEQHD
Sequence of E. coli MurE (P22188 whole entry): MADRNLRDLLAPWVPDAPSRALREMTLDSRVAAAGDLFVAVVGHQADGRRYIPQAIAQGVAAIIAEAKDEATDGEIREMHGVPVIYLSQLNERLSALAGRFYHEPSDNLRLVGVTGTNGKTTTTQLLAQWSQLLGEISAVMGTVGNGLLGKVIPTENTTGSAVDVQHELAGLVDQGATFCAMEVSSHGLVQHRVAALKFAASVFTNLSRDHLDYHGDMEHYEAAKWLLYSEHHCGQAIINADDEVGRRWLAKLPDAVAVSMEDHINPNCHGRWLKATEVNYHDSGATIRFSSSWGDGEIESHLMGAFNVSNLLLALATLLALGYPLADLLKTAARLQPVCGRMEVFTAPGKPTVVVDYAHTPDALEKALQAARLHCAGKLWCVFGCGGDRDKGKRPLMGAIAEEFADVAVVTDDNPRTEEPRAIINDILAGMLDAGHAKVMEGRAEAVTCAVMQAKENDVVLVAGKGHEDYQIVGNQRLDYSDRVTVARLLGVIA
Sequence of E. coli MurD (P14900 whole entry): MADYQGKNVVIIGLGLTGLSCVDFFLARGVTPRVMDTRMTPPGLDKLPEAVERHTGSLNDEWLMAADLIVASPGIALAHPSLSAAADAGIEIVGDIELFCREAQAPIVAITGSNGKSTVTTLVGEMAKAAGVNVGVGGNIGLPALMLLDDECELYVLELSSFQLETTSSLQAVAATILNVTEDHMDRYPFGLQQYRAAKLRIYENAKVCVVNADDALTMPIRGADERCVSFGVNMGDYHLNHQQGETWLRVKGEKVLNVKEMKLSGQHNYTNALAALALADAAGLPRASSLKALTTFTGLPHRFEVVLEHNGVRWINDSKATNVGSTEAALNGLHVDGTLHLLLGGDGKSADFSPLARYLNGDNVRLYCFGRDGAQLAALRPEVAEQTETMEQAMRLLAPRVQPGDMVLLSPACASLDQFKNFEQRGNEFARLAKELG
Sequence of E. coli MurF (P11880 whole entry): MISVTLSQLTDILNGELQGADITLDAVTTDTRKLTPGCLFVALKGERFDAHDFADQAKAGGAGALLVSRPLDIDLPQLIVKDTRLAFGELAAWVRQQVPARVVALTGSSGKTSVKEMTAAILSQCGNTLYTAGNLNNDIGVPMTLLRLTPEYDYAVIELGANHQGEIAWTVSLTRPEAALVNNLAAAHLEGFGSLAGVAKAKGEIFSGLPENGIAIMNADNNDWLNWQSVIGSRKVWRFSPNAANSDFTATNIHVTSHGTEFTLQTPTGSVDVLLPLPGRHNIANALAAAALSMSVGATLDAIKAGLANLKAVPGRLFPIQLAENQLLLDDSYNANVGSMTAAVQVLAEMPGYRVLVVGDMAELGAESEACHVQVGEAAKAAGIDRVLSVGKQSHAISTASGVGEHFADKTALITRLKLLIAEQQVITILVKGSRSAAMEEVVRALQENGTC

For the compound `COc1ccc([C@@H]2CC(=O)c3c(O)cc(O)cc3O2)cc1O` [Compound 1], the MIC in assay [1] (setting [7]) and in assay [2] (setting [8]) was more than 250 µM throughout. Further, the remaining activity at 100 µM in assay [3] (setting [9]) was found to be 100 ± 9%; in assay [4] (setting [9]), 94 ± 9%; in assay [5] it was 87 ± 8%; in assay [6] (setting [9]) it was 100 ± 10%.

As to `CC(C)=CCc1c(O)cc(O)c2c1O[C@H](c1ccc(O)cc1)CC2=O` [Compound 3], the MIC in assay [1] (setting [7]) was 62 µM; in assay [2] (setting [8]), more than 250 µM. Also, in assay [1] (broth microdilution), the “Inhibition of growth of S. aureus (in words)” value is listed as “inhibit the growth”. The remaining activity at 100 µM amounted to 95 ± 10% in assay [3] (setting [9]), 100 ± 8% in assay [4] (setting [9]), 71 ± 7% in assay [5] and 87 ± 9% in assay [6] (setting [9]).

Regarding `COc1cc(O)c2c(=O)c(O)c(-c3ccc(O)c(O)c3)oc2c1` [Compound 13], the MIC in assay [1] (setting [7]) and in assay [2] (setting [8]) was more than 250 µM in each case. Further, the remaining activity at 100 µM in assay [3] (setting [9]) stood at 66 ± 7%; in assay [4] (setting [9]), 71 ± 8%; in assay [5] it was 51 ± 6%; in assay [6] (setting [9]), 82 ± 8%.

In the case of `O=c1c(OC2OC(CO)C(O)C(O)C2O)c(-c2ccc(O)c(O)c2)oc2cc(O)cc(O)c12` (centres unmarked) [Compound 9], the MIC in assay [1] (setting [7]) and in assay [2] (setting [8]) was more than 250 µM throughout. Also, the remaining activity at 100 µM in assay [3] (setting [9]) was determined as 89 ± 8%; in assay [4] (setting [9]) it was 100 ± 8%; in assay [5] it was 90 ± 8%; in assay [6] (setting [9]), 100 ± 8%.

In the case of `O=c1c(O)c(-c2ccccc2)oc2cc(O)cc(O)c12` [Compound 16], the MIC is 250 µM in assay [1] (setting [7]) and more than 250 µM in assay [2] (setting [8]). The “Inhibition of growth of S. aureus (in words)” value in assay [1] (broth microdilution) is recorded as “inhibit the growth”. Also, the remaining activity at 100 µM in assay [3] (setting [9]) turned out to be 100 ± 8%; in assay [4] (setting [9]), 91 ± 7%; in assay [5] it was 100 ± 10%; in assay [6] (setting [9]), 100 ± 10%.

As to `COc1cc(OC)c2c(=O)cc(-c3ccc(OC)c(OC)c3)oc2c1` [Compound 19], the MIC in assay [1] (setting [10]) and in assay [2] (setting [11]) was more than 250 µM throughout. Further, the remaining activity at 100 µM in assay [3] (setting [9]) came to 100 ± 9%; in assay [4] (setting [9]) it was 100 ± 10%; in assay [5], 100 ± 9%; in assay [6] (setting [9]) it was 100 ± 9%.

In the case of `COc1cc(O)c(CC=C(C)C)c2c1C(=O)C[C@@H](c1ccc(O)cc1)O2` [Compound 2], the MIC is 250 µM in assay [1] (setting [7]) and more than 250 µM in assay [2] (setting [8]). The “Inhibition of growth of S. aureus (in words)” value in assay [1] (broth microdilution) is “inhibit the growth”. In addition, the remaining activity at 100 µM in assay [3] (setting [9]) is 86 ± 8%; in assay [4] (setting [9]), 100 ± 10%; in assay [5] it was 78 ± 9%; in assay [6] (setting [9]) it was 77 ± 7%.

With `Cc1c(O)cc(O)c2c1O[C@H](c1ccccc1)CC2=O` [Compound 4], the MIC in assay [1] (setting [7]) and in assay [2] (setting [8]) was more than 250 µM in each case. For the same compound, the remaining activity at 100 µM in assay [3] (setting [9]) worked out at 91 ± 9%; in assay [4] (setting [9]), 97 ± 8%; in assay [5] it was 88 ± 9%; in assay [6] (setting [9]) it was 100 ± 9%.

Regarding `O=c1c(O)c(-c2cc(O)c(O)c(O)c2)oc2cc(O)cc(O)c12` [Compound 12, myricetin], the MIC in assay [1] (setting [7]) and in assay [2] (setting [8]) was more than 250 µM throughout. Further, in assay [1] (broth microdilution), the “Inhibition of growth of S. aureus (in words)” value was “inactive”. In assay [2] (broth microdilution), the “Inhibition of growth of E. coli (in words)” value is “inactive”. For the same compound, the remaining activity at 100 µM in assay [3] (setting [9]) amounted to 87 ± 8%; in assay [4] (setting [9]), 87 ± 9%; in assay [6] (setting [9]), 66 ± 7%. Besides, the 50% inhibitory concentration (IC50) in assay [5] was found to be 139 ± 13 µM.

For `COc1cc(O)c(CC=C(C)C)c(O)c1C(=O)/C=C/c1ccc(O)cc1` [Compound 23, xanthohumol], the MIC was 31 µM in assay [1] (ATCC29, broth microdilution, 20 h at 35 °C, read-out: MIC S. aureus); 31 µM in assay [1] (setting [7]); more than 250 µM in assay [2] (setting [8]). Also, in assay [1] (broth microdilution), the “Inhibition of growth of S. aureus (in words)” value was “inhibit the growth”. The remaining activity at 100 µM in assay [3] (setting [9]) turned out to be 86 ± 8%; in assay [4] (setting [9]) it was 91 ± 10%; in assay [5], 72 ± 8%; in assay [6] (setting [9]), 82 ± 7%.

Turning to `Oc1cc(O)c2c(c1)O[C@H](c1ccc(O)c(O)c1)[C@@H](O)C2` [Compound 22, (+)-catechin], the MIC in assay [1] (setting [7]) and in assay [2] (setting [8]) was more than 250 µM in each case. The remaining activity at 100 µM in assay [3] (setting [9]) is 100 ± 10%; in assay [4] (setting [9]) it was 93 ± 8%; in assay [5], 100 ± 10%; in assay [6] (setting [9]) it was 88 ± 8%.

On to `C[C@@H]1O[C@@H](Oc2c(-c3ccc(O)c(O)c3)oc3cc(O)cc(O)c3c2=O)[C@H](O)[C@H](O)[C@H]1O` [Compound 10, quercitrin], for which the MIC in assay [1] (setting [10]) and in assay [2] (setting [11]) was more than 250 µM throughout. Also, the “Inhibition of growth of S. aureus (in words)” value in assay [1] (broth microdilution) is “inactive”. Moreover, the “Inhibition of growth of E. coli (in words)” value in assay [2] (broth microdilution) was “inactive”. Also, the remaining activity at 100 µM in assay [3] (setting [9]) is 98 ± 10%; in assay [4] (setting [9]) it was 77 ± 9%; in assay [6] (setting [9]), 98 ± 9%. The compound also showed an IC50 in assay [5] of 143 ± 18 µM.

For `O=c1c(O)c(-c2ccc(O)c(O)c2)oc2cc(O)cc(O)c12` [Compound 14, Quercetin], the MIC is 250 µM in assay [1] (setting [7]) and more than 250 µM in assay [2] (setting [8]). The “Inhibition of growth of S. aureus (in words)” value in assay [1] (broth microdilution) is on record as “inhibit the growth”. In addition, the remaining activity at 100 µM in assay [3] is 41 ± 5%; in assay [4], 43 ± 6%; in assay [6], 28 ± 4%.

`O=c1c(O[C@@H]2O[C@H](CO)[C@@H](O)[C@H](O)[C@H]2O)c(-c2ccc(O)c(O)c2)oc2cc(O)cc(O)c12` [Compound 8]: the MIC in assay [1] (setting [7]) and in assay [2] (setting [8]) was more than 250 µM in each case. For the same compound, the remaining activity at 100 µM is 95 ± 9% in assay [3] (setting [9]), 100 ± 9% in assay [4] (setting [9]), 88 ± 9% in assay [5] and 97 ± 8% in assay [6] (setting [9]).

For `O=c1cc(-c2ccccc2)oc2cc(O)cc(O)c12` [Compound 17], the MIC in assay [1] (setting [7]) and in assay [2] (setting [8]) was more than 250 µM in each case. Besides, the remaining activity at 100 µM in assay [3] (setting [9]) turned out to be 100 ± 10%; in assay [4] (setting [9]) it was 71 ± 9%; in assay [5], 100 ± 8%; in assay [6] (setting [9]), 83 ± 8%.

Turning to `O=c1cc(-c2ccc(O)c(O)c2)oc2cc(OC3OC(CO)C(O)C(O)C3O)cc(O)c12` (centres unmarked) [Compound 15], the MIC in assay [1] (setting [7]) and in assay [2] (setting [8]) was more than 250 µM in each case. The remaining activity at 100 µM in assay [3] (setting [9]) was found to be 100 ± 9%; in assay [4] (setting [9]) it was 75 ± 6%; in assay [5], 92 ± 9%; in assay [6] (setting [9]), 100%.

`CN(C)[C@@H]1C(O)=C(C(N)=O)C(=O)[C@@]2(O)C(O)=C3C(=O)c4c(O)cccc4[C@@](C)(O)[C@H]3C[C@@H]12` [Tetracycline, reference compound]: the MIC in assay [1] (ATCC29, positive control on every assay plate, read-out: MIC S. aureus, positive control) was determined as 0.5 µg/mL; in assay [2] (ATCC25, positive control on every assay plate, read-out: MIC E. coli, positive control), 1 µg/mL.

In the case of `COc1cc([C@@H]2[C@H]3CO[C@@]4(O)C(=O)[C@@H]2C=C([C@H]2Oc5cc(O)cc(O)c5C(=O)[C@@H]2O)[C@@H]34)ccc1O` [Compound 24, silydianin], the MIC in assay [1] (setting [7]) and in assay [2] (setting [8]) was more than 250 µM throughout. Moreover, the remaining activity at 100 µM in assay [3] (setting [9]) was determined as 100 ± 7%; in assay [4] (setting [9]), 95 ± 9%; in assay [5], 99 ± 7%; in assay [6] (setting [9]), 93 ± 9%.
